# From EPA's ToxRefDB 2
# Experiments:
# dog [1] = conditions: Chronic toxicity; beagle; Oral; Capsule; dose end: 52 week; group: systemic; systemic / in life observation / clinical signs / ataxia + systemic / in life observation / clinical signs / squinting + systemic / in life …
# rat [2] = conditions: Combined chronic toxicity/carcinogenicity, fischer, Oral, [Not Specified], dose end: 123 week, group: systemic
# mouse [3] = conditions: Carcinogenicity, cd1, Oral, Feed, dose end: 81 week, group: systemic
# rabbit = conditions: Prenatal developmental toxicity study, new zealand white, Oral, Gavage/Intubation, dose end: 19 GD
# mouse [4] = conditions: Sub-acute repeat dose toxicity, cd1, Oral, Feed, dose end: 5 week, group: systemic
# rat [5] = conditions: Multigenerational reproductive toxicity study, sprague dawley, Oral, Feed, dose end: 2 generation
# rat [6] = conditions: Prenatal developmental toxicity study, wistar, Oral, Gavage/Intubation, dose end: 15 GD
# mouse [7] = conditions: Subchronic oral toxicity in rodents, cd1, Feed, dose end: 13 week, group: systemic
# rat [8] = conditions: Subchronic oral toxicity in rodents, sprague dawley, Feed, dose end: 90 day, group: systemic
# rat [9] = conditions: Prenatal developmental toxicity study, sprague dawley, Oral, Gavage/Intubation, dose end: 15 GD
# dog [10] = conditions: Chronic toxicity; beagle; Oral; Feed; dose end: 52 week; group: systemic; systemic / organ weight / kidney / absolute + systemic / organ weight / kidney / relative to body weight + systemic / pathology microscopic…
# rat [11] = conditions: Combined chronic toxicity/carcinogenicity, sprague dawley, Oral, Feed, dose end: 24 month, group: systemic
# [12] = systemic / organ weight / liver / absolute + systemic / organ weight / liver / relative to body weight + systemic / urinalysis / specific …
# [13] = systemic / organ weight / liver / relative to body weight + systemic / pathology microscopic / liver / fatty change
# [14] = systemic / organ weight / liver / relative to body weight + systemic / pathology microscopic / liver / fatty change + systemic / pathology …
# [15] = group: developmental, developmental / developmental malformation / bone / fused + developmental / developmental malformation / bone / thoracic hemivertebra
# [16] = group: maternal, systemic / in life observation / body weight / body weight gain + systemic / in life observation / clinical signs / convulsions + systemic…
# [17] = systemic / clinical chemistry / alanine aminotransferase (alt/sgpt) / alanine aminotransferase (alt/sgpt) + systemic / clinical chemistry / …
# [18] = systemic / clinical chemistry / triglycerides / triglycerides
# [19] = group: parental, systemic / organ weight / liver / absolute + systemic / organ weight / liver / relative to body weight + systemic / pathology microscopic / …
# [20] = group: reproductive, reproductive / reproductive performance / gestational length / gestational length
# [21] = group: developmental, systemic / in life observation / body weight / fetal weight
# [22] = group: maternal, systemic / in life observation / body weight / body weight gain + reproductive / reproductive performance / reproductive performance other…
# [23] = systemic / clinical chemistry / calcium / calcium
# [24] = group: developmental, developmental / developmental malformation / bone / full supernumerary + developmental / developmental malformation / general / crown-rump …
# [25] = group: maternal, systemic / in life observation / body weight / body weight gain + systemic / in life observation / clinical signs / body surface staining + …
# [26] = systemic / organ weight / adrenal gland / nos + systemic / organ weight / pituitary gland / nos + systemic / in life observation / clinical …
smiles,measurement,setting,value
C=CCC1=C(C)C(OC(=O)C2C(C=C(C)C)C2(C)C)CC1=O (stereo not drawn) [Allethrin],LEL,dog [1],20 mg/kg/day
same,LOAEL,dog [1],20 mg/kg/day
same,NEL,dog [1],6 mg/kg/day
same,NOAEL,dog [1],6 mg/kg/day
same,LOAEL,rat [2]; systemic / organ weight / liver / absolute + systemic / organ weight / liver / relative to body weight,24.5 mg/kg/day
same,LEL,rat [2]; [12],5.9 mg/kg/day
same,NEL,rat [2]; [12],< 5.9 mg/kg/day
same,NOAEL,rat [2]; [12],5.9 mg/kg/day
same,NEL,mouse [3]; [13],71.6 mg/kg/day
same,NOAEL,mouse [3]; [13],71.6 mg/kg/day
same,LEL,mouse [3]; [14],350 mg/kg/day
same,LOAEL,mouse [3]; [14],350 mg/kg/day
same,LEL,rabbit; [15],350 mg/kg/day
same,LOAEL,rabbit; [15],350 mg/kg/day
same,NEL,rabbit; [15],100 mg/kg/day
same,NOAEL,rabbit; [15],100 mg/kg/day
same,LEL,rabbit; [16],350 mg/kg/day
same,LOAEL,rabbit; [16],350 mg/kg/day
same,NEL,rabbit; [16],100 mg/kg/day
same,NOAEL,rabbit; [16],100 mg/kg/day
same,LOAEL,mouse [4]; [17],1520 mg/kg/day
same,NOAEL,mouse [4]; [17],438 mg/kg/day
same,LEL,mouse [4]; [18],14 mg/kg/day
same,NEL,mouse [4]; [18],< 14 mg/kg/day
FC(F)C(F)(F)OCC(Cn1cncn1)c1ccc(Cl)cc1Cl (stereo not drawn) [Tetraconazole],LOAEL,"rat [5]; group: offspring, systemic / in life observation / body weight / offspring (pup) weight + systemic / organ weight / liver / relative to body weight",35.5 mg/kg/day
same,NOAEL,"rat [5]; group: offspring, systemic / in life observation / body weight / offspring (pup) weight + systemic / organ weight / liver / relative to body weight + systemic…",4.9 mg/kg/day
same,LEL,"rat [5]; group: offspring, systemic / organ weight / liver / relative to body weight",5.9 mg/kg/day
same,NEL,"rat [5]; group: offspring, systemic / organ weight / liver / relative to body weight + systemic / in life observation / body weight / offspring (pup) weight + systemic…",0.8 mg/kg/day
same,LOAEL,rat [5]; [19],35.5 mg/kg/day
same,NOAEL,rat [5]; [19],4.9 mg/kg/day
same,LEL,"rat [5]; group: parental, systemic / organ weight / liver / relative to body weight",6 mg/kg/day
same,NEL,"rat [5]; group: parental, systemic / organ weight / liver / relative to body weight + systemic / in life observation / body weight / body weight gain + systemic / in …",0.8 mg/kg/day
same,LEL,rat [5]; [20],5.9 mg/kg/day
same,LOAEL,rat [5]; [20],5.9 mg/kg/day
same,NEL,rat [5]; [20],0.8 mg/kg/day
same,NOAEL,rat [5]; [20],0.8 mg/kg/day
same,LEL,rat [6]; [21],100 mg/kg/day
same,LOAEL,rat [6]; [21],100 mg/kg/day
same,NEL,rat [6]; [21],30 mg/kg/day
same,NOAEL,rat [6]; [21],30 mg/kg/day
same,LOAEL,"rat [6]; group: maternal, systemic / in life observation / body weight / body weight gain",100 mg/kg/day
same,LEL,rat [6]; [22],100 mg/kg/day
same,NEL,rat [6]; [22],30 mg/kg/day
same,NOAEL,rat [6]; [22],30 mg/kg/day
same,LOAEL,mouse [7]; [17],20 mg/kg/day
same,NOAEL,mouse [7]; [17],4 mg/kg/day
same,LEL,mouse [7]; systemic / pathology microscopic / liver / hypertrophy + systemic / pathology microscopic / liver / degeneration,16 mg/kg/day
same,NEL,mouse [7]; systemic / pathology microscopic / liver / hypertrophy + systemic / pathology microscopic / liver / degeneration + systemic / clinical …,4 mg/kg/day
same,LEL,rat [8]; [23],0.7 mg/kg/day
same,NEL,rat [8]; [23],< 0.7 mg/kg/day
same,NOAEL,rat [8]; systemic / clinical chemistry / calcium / calcium + systemic / in life observation / body weight / body weight gain + systemic / organ …,4.1 mg/kg/day
same,LOAEL,rat [8]; systemic / in life observation / body weight / body weight gain + systemic / organ weight / liver / relative to body weight + systemic / …,23.9 mg/kg/day
same,LEL,rat [9]; [24],100 mg/kg/day
same,LOAEL,rat [9]; [24],100 mg/kg/day
same,NEL,rat [9]; [24],22.5 mg/kg/day
same,NOAEL,rat [9]; [24],22.5 mg/kg/day
same,LEL,rat [9]; [25],22.5 mg/kg/day
same,LOAEL,rat [9]; [25],> 100 mg/kg/day
same,NEL,rat [9]; [25],5 mg/kg/day
same,NOAEL,rat [9]; [25],≥ 100 mg/kg/day
same,LEL,dog [10],2.95 mg/kg/day
same,LOAEL,dog [10],2.95 mg/kg/day
same,NEL,dog [10],0.73 mg/kg/day
same,NOAEL,dog [10],0.73 mg/kg/day
same,LEL,rat [11]; systemic / clinical chemistry / alanine aminotransferase (alt/sgpt) / alanine aminotransferase (alt/sgpt),3.4 mg/kg/day
same,LOAEL,rat [11]; [26],27.7 mg/kg/day
same,NEL,rat [11]; [26],0.4 mg/kg/day
same,NOAEL,rat [11]; [26],3.4 mg/kg/day
